Data from ChEMBL document CHEMBL1147888, “Convenient one pot synthesis and antimicrobial evaluation of some new Mannich bases carrying 4-methylthiobenzyl moiety” (2007).
In brackets after ≈: the same amount, converted by molar mass.

Assays:
Assay type in all cases: functional
[1] = system: Staphylococcus aureus; assay: Antibacterial activity against Staphylococcus aureus ATCC 25923 at 10 ug/ml after 24 hrs by disc diffusion method; conditions: ATCC 25923, 24 h, read-out: IZ
[2] = system: Pseudomonas aeruginosa; assay: Antibacterial activity against Pseudomonas aeruginosa ATCC 27853 at 10 ug/ml after 24 hrs by disc diffusion method; conditions: ATCC 27853, 24 h, read-out: IZ
[3] = system: Klebsiella pneumoniae; assay: Antibacterial activity against Klebsiella pneumoniae after 24 hrs at 10 ug/ml by disc diffusion method; conditions: read-out: IZ
[4] = system: Escherichia coli; assay: Antibacterial activity against Escherichia coli ATCC 25922 after 24 hrs at 10 ug/ml by disc diffusion method; conditions: ATCC 25922, 24 h, read-out: IZ
[5] = system: Aspergillus fumigatus; assay: Antifungal activity against Aspergillus fumigatus NICM902 at 10 ug/ml after 3 to 4 days by serial dilution method; conditions: read-out: IZ
[6] = system: Aspergillus flavus; assay: Antifungal activity against Aspergillus flavus NICM524 at 10 ug/ml after 3 to 4 days by serial dilution method; conditions: read-out: IZ
[7] = system: Candida albicans; assay: Antifungal activity against Candida albicans NICM3100 at 10 ug/ml after 3 to 4 days by serial dilution method; conditions: read-out: IZ
[8] = system: Talaromyces marneffei; assay: Antifungal activity against Penicillium marneffei at 10 ug/ml after 3 to 4 days by serial dilution method; conditions: read-out: IZ
[9] = system: Staphylococcus aureus; assay: Antibacterial activity against Staphylococcus aureus ATCC 25923 after 24 hrs by disc diffusion method; conditions: ATCC 25923, 24 h
[10] = system: Pseudomonas aeruginosa; assay: Antibacterial activity against Pseudomonas aeruginosa ATCC 27853 after 24 hrs by disc diffusion method; conditions: ATCC 27853, 24 h
[11] = system: Klebsiella pneumoniae; assay: Antibacterial activity against Klebsiella pneumoniae after 24 hrs by disc diffusion method
[12] = system: Escherichia coli; assay: Antibacterial activity against Escherichia coli ATCC 25922 after 24 hrs by disc diffusion method; conditions: ATCC 25922, 24 h
[13] = system: Aspergillus fumigatus; assay: Antifungal activity against Aspergillus fumigatus NICM902 after 3 to 4 days by serial dilution method
[14] = system: Aspergillus flavus; assay: Antifungal activity against Aspergillus flavus NICM524 after 3 to 4 days by serial dilution method
[15] = system: Candida albicans; assay: Antifungal activity against Candida albicans NICM3100 after 3 to 4 days by serial dilution method
[16] = system: Talaromyces marneffei; assay: Antifungal activity against Penicillium marneffei after 3 to 4 days by serial dilution method

Row | Structure (SMILES) | zone of inhibition at 10 µg/mL [1] [mm] | zone of inhibition at 10 µg/mL [2] [mm] | zone of inhibition at 10 µg/mL [3] [mm] | zone of inhibition at 10 µg/mL [4] [mm] | zone of inhibition at 10 µg/mL [5] [mm] | zone of inhibition at 10 µg/mL [6] [mm] | zone of inhibition at 10 µg/mL [7] [mm] | zone of inhibition at 10 µg/mL [8] [mm] | MIC [9] [µg/mL] | MIC [10] [µg/mL] | MIC [11] [µg/mL] | MIC [12] [µg/mL] | MIC [13] [µg/mL] | MIC [14] [µg/mL] | MIC [15] [µg/mL] | MIC [16] [µg/mL]
1 | CSc1ccc(Cc2nn(CN3CCOCC3)c(=S)n2/N=C/c2ccc(C)cc2)cc1 | 10 | 12 | 10 | 10 | 10 | 12 | 12 | 10 | 25 (≈ 55.1 µM) | 12.5 (≈ 27.6 µM) | 12.5 (≈ 27.6 µM) | 25 (≈ 55.1 µM) | 12.5 (≈ 27.6 µM) | 25 (≈ 55.1 µM) | 12.5 (≈ 27.6 µM) | 12.5 (≈ 27.6 µM)
2 | Cc1cc(C2CCCCC2)n(O)c(=O)c1.NCCO [CICLOPIROX OLAMINE] | – | – | – | – | 22 | 18 | 20 | 20 | – | – | – | – | 6 | 12.5 | 6 | 6
3 | CSc1ccc(/C=N/n2c(Cc3ccc(SC)cc3)nn(CN3CCN(C)CC3)c2=S)cc1 | 12 | 12 | 10 | 10 | 12 | 12 | 10 | 12 | 25 (≈ 50.1 µM) | 12.5 (≈ 25.1 µM) | 12.5 (≈ 25.1 µM) | 25 (≈ 50.1 µM) | 12.5 (≈ 25.1 µM) | 25 (≈ 50.1 µM) | 12.5 (≈ 25.1 µM) | 12.5 (≈ 25.1 µM)
4 | CSc1ccc(Cc2nn(CN3CCN(C)CC3)c(=S)n2/N=C/c2ccc3c(c2)OCO3)cc1 | 10 | 12 | 10 | 12 | 10 | 10 | 10 | 10 | 25 (≈ 50.3 µM) | 12.5 (≈ 25.2 µM) | 12.5 (≈ 25.2 µM) | 25 (≈ 50.3 µM) | 12.5 (≈ 25.2 µM) | 25 (≈ 50.3 µM) | 12.5 (≈ 25.2 µM) | 12.5 (≈ 25.2 µM)
5 | CSc1ccc(Cc2nn(CN3CCN(C)CC3)c(=S)n2/N=C/c2ccc(Cl)cc2)cc1 | 18 | 24 | 20 | 18 | 20 | 18 | 19 | 20 | 12.5 (≈ 25.7 µM) | 6 (≈ 12.3 µM) | 6 (≈ 12.3 µM) | 12.5 (≈ 25.7 µM) | 6 (≈ 12.3 µM) | 12.5 (≈ 25.7 µM) | 6 (≈ 12.3 µM) | 6 (≈ 12.3 µM)
6 | CSc1ccc(Cc2nn(CN3CCOCC3)c(=S)n2/N=C/c2ccc3c(c2)OCO3)cc1 | 10 | 12 | 10 | 10 | 12 | 10 | 10 | 10 | 25 (≈ 51.7 µM) | 12.5 (≈ 25.8 µM) | 12.5 (≈ 25.8 µM) | 25 (≈ 51.7 µM) | 12.5 (≈ 25.8 µM) | 25 (≈ 51.7 µM) | 12.5 (≈ 25.8 µM) | 12.5 (≈ 25.8 µM)
7 | CSc1ccc(Cc2nn(CN3CCN(C)CC3)c(=S)n2/N=C/c2ccc(Cl)cc2Cl)cc1 | 19 | 25 | 20 | 18 | 22 | 18 | 20 | 18 | 12.5 (≈ 24 µM) | 6 (≈ 11.5 µM) | 6 (≈ 11.5 µM) | 12.5 (≈ 24 µM) | 6 (≈ 11.5 µM) | 12.5 (≈ 24 µM) | 6 (≈ 11.5 µM) | 6 (≈ 11.5 µM)
8 | CSc1ccc(Cc2nn(CN3CCOCC3)c(=S)n2/N=C/c2ccc(F)cc2)cc1 | 12 | 12 | 12 | 12 | 10 | 10 | 10 | 12 | 25 (≈ 54.6 µM) | 12.5 (≈ 27.3 µM) | 12.5 (≈ 27.3 µM) | 25 (≈ 54.6 µM) | 12.5 (≈ 27.3 µM) | 25 (≈ 54.6 µM) | 12.5 (≈ 27.3 µM) | 12.5 (≈ 27.3 µM)
9 | CSc1ccc(Cc2nn(CN3CCN(C)CC3)c(=S)n2/N=C/c2ccc(C)cc2)cc1 | 10 | 12 | 10 | 12 | 10 | 12 | 12 | 11 | 25 (≈ 53.6 µM) | 12.5 (≈ 26.8 µM) | 12.5 (≈ 26.8 µM) | 25 (≈ 53.6 µM) | 12.5 (≈ 26.8 µM) | 25 (≈ 53.6 µM) | 12.5 (≈ 26.8 µM) | 12.5 (≈ 26.8 µM)
10 | CSc1ccc(Cc2nn(CN3CCOCC3)c(=S)n2/N=C/c2ccc(Cl)cc2)cc1 | 10 | 12 | 10 | 10 | 10 | 10 | 10 | 10 | 25 (≈ 52.7 µM) | 12.5 (≈ 26.4 µM) | 12.5 (≈ 26.4 µM) | 25 (≈ 52.7 µM) | 12.5 (≈ 26.4 µM) | 25 (≈ 52.7 µM) | 12.5 (≈ 26.4 µM) | 12.5 (≈ 26.4 µM)
11 | CSc1ccc(Cc2nn(CN3CCN(C)CC3)c(=S)n2/N=C/c2ccc(F)cc2)cc1 | 12 | 10 | 10 | 12 | 12 | 10 | 10 | 10 | 25 (≈ 53.1 µM) | 12.5 (≈ 26.6 µM) | 12.5 (≈ 26.6 µM) | 25 (≈ 53.1 µM) | 12.5 (≈ 26.6 µM) | 25 (≈ 53.1 µM) | 12.5 (≈ 26.6 µM) | 12.5 (≈ 26.6 µM)
12 | O=C(O)c1cn(C2CC2)c2cc(N3CCNCC3)c(F)cc2c1=O [CIPROFLOXACIN] | 19 | 25 | 20 | 18 | 22 | 18 | 20 | 20 | 12.5 (≈ 37.7 µM) | 6 (≈ 18.1 µM) | 6 (≈ 18.1 µM) | 12.5 (≈ 37.7 µM) | – | – | – | –
